# According to ChEMBL document CHEMBL1137308 (J Med Chem, 2006):
# Calls of active or inactive are those of the source. The rule behind the calls is not given here.
# How the values were obtained:
# Providencia rettgeri = assay: Antibacterial activity against Providencia rettgeri PR9; format: functional
# Enterococcus faecium = assay: Antibacterial activity against vancomycin-resistant Enterococcus faecium EF4-3489; format: functional
# Klebsiella pneumoniae [1] = assay: Antibacterial activity against Klebsiella pneumonia ESBL KP3729; format: functional
# Staphylococcus aureus [2] = assay: Antibacterial activity against methicillin-resistant Staphylococcus aureus SA1417; format: functional
# Staphylococcus aureus [3] = assay: Antibacterial activity against Staphylococcus aureus SA2554; format: functional
# Streptococcus pyogenes [4] = assay: Antibacterial activity against Streptococcus pyogenes C203 SP1-1; format: functional
# Staphylococcus aureus [5] = assay: Antibacterial activity against Staphylococcus aureus SA2558; format: functional
# Klebsiella pneumoniae [6] = assay: Antibacterial activity against Klebsiella pneumonia KP2; format: functional
# Staphylococcus aureus [7] = assay: Antibacterial activity against ciprofolxacin-resistant Staphylococcus aureus SA2017; format: functional
# Staphylococcus aureus [8] = assay: Antibacterial activity against Staphylococcus aureus SA2552; format: functional
# Haemophilus influenzae = assay: Antibacterial activity against Haemophilus influenzae HI3542; format: functional
# Enterococcus faecalis [9] = assay: Antibacterial activity against Enterococcus faecalis MGH2 EF1-1; format: functional
# Moraxella catarrhalis = assay: Antibacterial activity against Moraxella catarrhalis BC-3531; format: functional
# Pseudomonas aeruginosa = assay: Antibacterial activity against Pseudomonas aeruginosa PA7; format: functional
# Staphylococcus aureus [10] = assay: Antibacterial activity against Staphylococcus aureus UC-76 SA-1; format: functional
# Staphylococcus aureus [11] = assay: Antibacterial activity against Staphylococcus aureus SA1417; format: functional
# Enterococcus faecalis [12] = assay: Antibacterial activity against Enterococcus faecalis EF1-3524; format: functional
# Streptococcus pneumoniae [13] = assay: Antibacterial activity against Streptococcus pneumonia SVI SP3; format: functional
# Escherichia coli [14] = assay: Antibacterial activity against Escherichia coli EC2549; format: functional
# Streptococcus pneumoniae [15] = assay: Antibacterial activity against quinolone-resistant Streptococcus pneumonia SP3763; format: functional
# Escherichia coli [16] = assay: Antibacterial activity against Escherichia coli EC2026; format: functional
# Escherichia coli [17] = assay: Antibacterial activity against Escherichia coli EC1-10; format: functional
# Enterococcus faecalis [18] = assay: Activity against sc dosed mouse infected with Enterococcus faecalis; format: functional; details: read-out: PD50
# Streptococcus pyogenes [19] = assay: Activity against po dosed mouse infected with Streptococcus pyogenes; format: functional; details: read-out: PD50
# Enterococcus faecalis [20] = assay: Activity against po dosed mouse infected with Enterococcus faecalis; format: functional; details: read-out: PD50
# Streptococcus pyogenes [21] = assay: Activity against sc dosed mouse infected with Streptococcus pyogenes; format: functional; details: read-out: PD50
# DNA gyrase = DNA gyrase (Escherichia coli, UniProt P0AES4+P0AES6); assay: Inhibition of Escherichia coli gyrase; format: functional
# Streptococcus pyogenes [22] = assay: Antibacterial activity against Streptococcus pyogenes […]; format: functional
# Enterococcus faecalis [23] = assay: Antibacterial activity against Enterococcus faecalis […]; format: functional
# Escherichia coli [24] = assay: Inhibition of Escherichia coli DNA synthesis; format: functional, organism-based
# [25] = target: T1, DNA gyrase (Escherichia coli) (UniProt P0AES6+P0AES4); assay: Displacement of [14C]ciprofloxacin from Escherichia coli gyrase; format: protein-complex assay
# [26] = target: T1, DNA gyrase (Escherichia coli); assay: Ability to inhibit DNA supercoiling activity of Escherichia coli gyrase; format: functional
smiles,measurement,setting,value
C[C@H]1COc2c(N3CCN(C)CC3)c(F)cc3c(=O)c(C(=O)O)cn1c23.C[C@H]1COc2c(N3CCN(C)CC3)c(F)cc3c(=O)c(C(=O)O)cn1c23.O [LEVOFLOXACIN],MIC,Providencia rettgeri,0.5 µg/mL
same,MIC,Enterococcus faecium,64 µg/mL
same,MIC,Klebsiella pneumoniae [1],8 µg/mL
same,MIC,Staphylococcus aureus [2],0.25 µg/mL
same,MIC,Staphylococcus aureus [3],0.5 µg/mL
same,MIC,Streptococcus pyogenes [4],0.5 µg/mL
same,MIC,Staphylococcus aureus [5],8 µg/mL
same,MIC,Klebsiella pneumoniae [6],0.03 µg/mL
same,MIC,Staphylococcus aureus [7],8 µg/mL
same,MIC,Staphylococcus aureus [8],0.25 µg/mL
same,MIC,Haemophilus influenzae,0.008 µg/mL
same,MIC,Enterococcus faecalis [9],1 µg/mL
same,MIC,Moraxella catarrhalis,0.03 µg/mL
same,MIC,Pseudomonas aeruginosa,0.5 µg/mL
same,MIC,Staphylococcus aureus [10],0.125 µg/mL
same,MIC,Staphylococcus aureus [11],0.25 µg/mL
same,MIC,Enterococcus faecalis [12],32 µg/mL
COc1c(N2CCNC(C)C2)c(F)cc2c(=O)c(C(=O)O)cn(C3CC3)c12 (stereo not drawn) [GATIFLOXACIN],MIC,Providencia rettgeri,0.5 µg/mL
same,MIC,Enterococcus faecium,32 µg/mL
same,MIC,Streptococcus pneumoniae [13],0.125 µg/mL
same,MIC,Klebsiella pneumoniae [1],8 µg/mL
same,MIC,Staphylococcus aureus [2],0.125 µg/mL
same,MIC,Escherichia coli [14],< 0.06 µg/mL
same,MIC,Staphylococcus aureus [3],0.125 µg/mL
same,MIC,Streptococcus pyogenes [4],0.5 µg/mL
same,MIC,Streptococcus pneumoniae [15],4 µg/mL
same,MIC,Escherichia coli [16],< 0.06 µg/mL
same,MIC,Staphylococcus aureus [5],4 µg/mL
same,MIC,Klebsiella pneumoniae [6],0.06 µg/mL
same,MIC,Staphylococcus aureus [7],8 µg/mL
same,MIC,Staphylococcus aureus [8],0.125 µg/mL
same,MIC,Haemophilus influenzae,0.015 µg/mL
same,MIC,Escherichia coli [17],0.06 µg/mL
same,MIC,Enterococcus faecalis [9],0.5 µg/mL
same,MIC,Moraxella catarrhalis,0.03 µg/mL
same,MIC,Pseudomonas aeruginosa,0.5 µg/mL
same,MIC,Staphylococcus aureus [10],0.03 µg/mL
same,MIC,Staphylococcus aureus [11],0.125 µg/mL
same,MIC,Enterococcus faecalis [12],16 µg/mL
C[C@H]1NCc2cc(-c3ccc4c(=O)c(C(=O)O)cn(C5CC5)c4c3OC(F)F)ccc21 [GARENOXACIN],MIC,Providencia rettgeri,0.06 µg/mL
same,MIC,Enterococcus faecium,8 µg/mL
same,MIC,Streptococcus pneumoniae [13],0.03 µg/mL
same,MIC,Klebsiella pneumoniae [1],32 µg/mL
same,MIC,Staphylococcus aureus [2],0.03 µg/mL
same,MIC,Escherichia coli [14],0.008 µg/mL
same,MIC,Staphylococcus aureus [3],0.03 µg/mL
same,MIC,Streptococcus pyogenes [4],0.06 µg/mL
same,MIC,Streptococcus pneumoniae [15],1 µg/mL
same,MIC,Escherichia coli [16],0.03 µg/mL
same,MIC,Staphylococcus aureus [5],2 µg/mL
same,MIC,Klebsiella pneumoniae [6],0.06 µg/mL
same,MIC,Staphylococcus aureus [7],2 µg/mL
same,MIC,Staphylococcus aureus [8],0.03 µg/mL
same,MIC,Haemophilus influenzae,0.015 µg/mL
same,MIC,Escherichia coli [17],0.25 µg/mL
same,MIC,Enterococcus faecalis [9],0.125 µg/mL
same,MIC,Moraxella catarrhalis,0.03 µg/mL
same,MIC,Pseudomonas aeruginosa,1 µg/mL
same,MIC,Staphylococcus aureus [10],0.015 µg/mL
same,MIC,Staphylococcus aureus [11],0.06 µg/mL
same,MIC,Enterococcus faecalis [12],4 µg/mL
O=C(O)c1cn(C2CC2)c2cc(N3CCNCC3)c(F)cc2c1=O [CIPROFLOXACIN],MIC,Providencia rettgeri,0.06 µg/mL
same,MIC,Enterococcus faecium,> 64 µg/mL
same,MIC,Streptococcus pneumoniae [13],1 µg/mL
same,MIC,Staphylococcus aureus [2],0.5 µg/mL
same,MIC,Staphylococcus aureus [3],2 µg/mL
same,MIC,Streptococcus pyogenes [4],0.5 µg/mL
same,MIC,Streptococcus pneumoniae [15],64 µg/mL
same,MIC,Staphylococcus aureus [5],64 µg/mL
same,MIC,Staphylococcus aureus [7],> 64 µg/mL
same,MIC,Haemophilus influenzae,0.008 µg/mL
same,MIC,Enterococcus faecalis [9],0.5 µg/mL
same,MIC,Moraxella catarrhalis,0.03 µg/mL
same,MIC,Pseudomonas aeruginosa,0.06 µg/mL
same,MIC,Staphylococcus aureus [10],0.13 µg/mL
same,MIC,Staphylococcus aureus [11],0.5 µg/mL
same,MIC,Enterococcus faecalis [12],32 µg/mL
COc1c(N2CC[C@@H]([C@H](C)N)C2)c(F)cc2c(=O)n(N)c(=O)n(C3CC3)c12,ED50,Enterococcus faecalis [18],11 mg/kg
same,MIC,Providencia rettgeri,4 µg/mL
same,MIC,Enterococcus faecium,1 µg/mL
same,MIC,Streptococcus pneumoniae [13],0.03 µg/mL
same,MIC,Klebsiella pneumoniae [1],8 µg/mL
same,ED50,Streptococcus pyogenes [19],3.1 mg/kg
same,MIC,Staphylococcus aureus [2],0.25 µg/mL
same,ED50,Enterococcus faecalis [20],38 mg/kg
same,MIC,Escherichia coli [14],0.13 µg/mL
same,MIC,Staphylococcus aureus [3],0.25 µg/mL
same,MIC,Streptococcus pyogenes [4],0.03 µg/mL
same,MIC,Streptococcus pneumoniae [15],0.06 µg/mL
same,ED50,Streptococcus pyogenes [21],1.2 mg/kg
same,MIC,Escherichia coli [16],4 µg/mL
same,MIC,Staphylococcus aureus [5],0.5 µg/mL
same,MIC,Klebsiella pneumoniae [6],8 µg/mL
same,MIC,Staphylococcus aureus [7],1 µg/mL
same,MIC,Staphylococcus aureus [8],0.5 µg/mL
same,MIC,Haemophilus influenzae,0.25 µg/mL
same,IC50,DNA gyrase,600 nM
same,MIC,Escherichia coli [17],2 µg/mL
same,MIC,Enterococcus faecalis [9],0.13 µg/mL
same,MIC,Streptococcus pyogenes [22],0.03 µg/mL
same,MIC,Moraxella catarrhalis,1 µg/mL
same,MIC,Pseudomonas aeruginosa,8 µg/mL
same,MIC,Staphylococcus aureus [10],0.13 µg/mL
same,MIC,Enterococcus faecalis [23],0.25 µg/mL
same,MIC,Staphylococcus aureus [11],0.5 µg/mL
same,MIC,Enterococcus faecalis [12],0.25 µg/mL
Cc1c(N2CC[C@@H]([C@H](C)N)C2)c(F)cc2c(=O)n(N)c(=O)n(C3CC3)c12,ED50,Enterococcus faecalis [18],4.2 mg/kg
same,Activity,Escherichia coli [24],Active
same,MIC,Providencia rettgeri,2 µg/mL
same,MIC,Enterococcus faecium,1 µg/mL
same,MIC,Streptococcus pneumoniae [13],0.015 µg/mL
same,MIC,Klebsiella pneumoniae [1],2 µg/mL
same,ED50,Streptococcus pyogenes [19],1.4 mg/kg
same,MIC,Staphylococcus aureus [2],0.125 µg/mL
same,ED50,Enterococcus faecalis [20],19 mg/kg
same,MIC,Escherichia coli [14],0.03 µg/mL
same,MIC,Staphylococcus aureus [3],0.13 µg/mL
same,MIC,Streptococcus pyogenes [4],0.015 µg/mL
same,MIC,Streptococcus pneumoniae [15],0.06 µg/mL
same,ED50,Streptococcus pyogenes [21],0.27 mg/kg
same,MIC,Escherichia coli [16],1 µg/mL
same,Activity,[25],Active
same,MIC,Staphylococcus aureus [5],0.25 µg/mL
same,MIC,Klebsiella pneumoniae [6],1 µg/mL
same,MIC,Staphylococcus aureus [7],0.5 µg/mL
same,MIC,Staphylococcus aureus [8],0.25 µg/mL
same,MIC,Haemophilus influenzae,0.125 µg/mL
same,IC50,DNA gyrase,200 nM
same,MIC,Escherichia coli [17],1 µg/mL
same,MIC,Enterococcus faecalis [9],0.125 µg/mL
same,MIC,Streptococcus pyogenes [22],0.015 µg/mL
same,MIC,Moraxella catarrhalis,0.25 µg/mL
same,MIC,Pseudomonas aeruginosa,4 µg/mL
same,MIC,Staphylococcus aureus [10],0.06 µg/mL
same,Activity,[26],Active
same,MIC,Enterococcus faecalis [23],0.06 µg/mL
same,MIC,Staphylococcus aureus [11],0.125 µg/mL
same,MIC,Enterococcus faecalis [12],0.25 µg/mL
